Literature values as cited in patent EP0436316A1, “X-ray contrast media for prolonged opacification” (Sovak, Milos, priority 1989, dated 1991).

Tested on: peritoneal surface
Details: barium sulfate spilled into the abdomen after a perforation

O=S(=O)([O-])[O-].[Ba+2] [barium sulfate]
mortality rate of barium peritonitis: ~50%
